Source: patent publication US10213451B2, “Methods and compounds for modulating the secretion or expression of adhesion proteins or angiopoietins of cells” (PACIFIC ARROW LIMITED, priority 2004, dated 2019)
≈ marks a conversion by molar mass, not a printed value.

Legend:
[1] = system: tenascin-C expression in ES2 cells; assay: Microarray gene expression, Table 9; assay type: cell-based, human; details: probe 201645_at
Method: (§1) Y/D is the ratio (in folds) of gene expression in cells treated with compound Y as compared with those of the no drug control (D),
(§2) YM/D is the ratio of gene expression in cells treated with compound YM (ACH-Y, Y without sugar moiety) compared with those of the no drug control (D)
(§3) Cell culture and drug-treatment.: ES2 cells were seeded in a T-25 flask with 4.5 million cells per flask for 24 hours. Cell culture was replaced with fresh medium with xanifolia-Y (Y) or DMSO no drug control (D) for 24 hours. Cells were then harvested for RNA isolation. Three experiments were done.
RNA extraction, labeling, hybridization, and data analysis. RNA was extracted from tumor cells using the Qiagen RNeasy Kit. RNA quality and quantity was checked by the Agilent BioAnalyzer and the NanoDrop® ND-1000 spectrophotometer respectively before further manipulation. […] The images were analyzed and quality control metrics recorded using Affymetrix GCOS software version 1.4. Lastly, the expression value for each gene was calculated using dChip PM-only model based or Plier algorithm.
Pairwise comparisons were made as follows: Treated vs. Control (Y vs. D), Modified Drug vs Control (YM/ACY-H vs. D) and Treated vs. Modified Drug (Y vs. YM/ACH-Y) Cel files analyzed using the Bioconductor package of R Statistical programming. […]

Hey 8A = assay: MTT assay Hey 8A; assay type: cell-based, human
Method: Majority of ovarian cancers arise from the surface epithelium of ovary, most of them belong to the histological subtypes of clear cell and serous carcinoma. We obtained 10 more human ovarian carcinoma cell-lines of these histological subtypes for these studies. The inhibition activity exerted by Xanifolia-Y was determined with MTT assay.
Cells: Hey8A (human ovarian carcinoma cells) were grew in RPMI 1640 medium to 90% confluent before drug-treatment. Drug-treatment: Cells cultures were replaced with fresh RPMI medium containing either DMSO (as control) [D1]; or Xanifolia-Y (10, 15, or 20 ug/ml) [Y1, Y2 and Y3]. Aliquot of medium was removed as 0 hours sample and no FN was detected at this time. After 24 hours, aliquot of culture medium was taken out for Fibronectin determination (Western blot method). Cell viability at 24 hours was determined by MTT assay. Cultures were replaced with RPMI medium (5 ml) with MTT and incubated for an hour. The formation of formazan was dissolved in DMSO and OD at 570 nm was measured.

[2] = system: laminin expression in ES2 cells; assay: Microarray gene expression, Table 3; assay type: cell-based, human; details: for LAMC1, gene expression ratio to no drug control (D): probe 200770_s_at; for LAMB1 laminin, beta 1, gene expression ratio to no drug control (D): probe 201505_at; for LAMA4 laminin, alpha 4, gene expression ratio to no drug control (D): probe 202202_s_at; for LAMB1, gene expression ratio to no drug control (D): probe 211651_s_at; for LAMB2, gene expression ratio to no drug control (D): probe 216264_s_at
Method: as §1, §2, §3
(§4) RNA extraction, labeling, hybridization, and data analysis. RNA was extracted from tumor cells using the Qiagen RNeasy Kit. RNA quality and quantity was checked by the Agilent BioAnalyzer and the NanoDrop® ND-1000 spectrophotometer respectively before further manipulation. The first and second cDNA strands were synthesized from 20 ng of total RNA using the Affymetrix T7 oligo(dT) primer protocol and kit for the two-cycle amplification. To produce amplified biotin-labeled-cRNA, the cDNA was […] by in vitro transcription using the MegaScript kit from Ambion. 15.0 μg of the labeled cRNA was fragmented and re-checked for concentration using the NanoDrop® ND-1000 spectrophotometer. A hybridization cocktail containing Affymetrix spike-in controls and fragmented labeled cRNA was loaded onto the Human U133 Plus 2.0 GeneChip® oligonucleotide array. The Affymetrix array (Affymetrix, Inc. Santa Clara, Calif.) is comprised of over 1,300,000 unique oligonucleotide features that represent greater than 38,500 well-substantiated human genes. The array was hybridized for 16 hours at 45° C. with rotation at 60 rpm then washed and stained with a strepavidin, R-phycoerythrin conjugate stain on the Affymetrix Fluidicis Station 450. Signal amplification was done using biotinylated antistreptavidin. The arrays were scanned using the GeneChip® 3000 confocal laser scanner with autoloader. The images were analyzed and quality control metrics recorded using Affymetrix GCOS software version 1.4. Lastly, the expression value for each gene was calculated using dChip PM-only model based or Plier algorithm.
(§5) Pairwise comparisons were made as follows: Treated vs. Control (Y vs. D), Modified Drug vs Control (YM/ACY-H vs. D) and Treated vs. Modified Drug (Y vs. YM/ACH-Y) Cel files analyzed using the Bioconductor package of R Statistical programming. Limma analysis generated a reasonable number of changing genes between the samples.
(§6) The raw data in the .CEL files were normalized by the GCRMA method (robust multi-array analysis). It is implemented in Bioconductor (http://www.bioconductor.org/). The raw signal intensity data were normalized, background corrected and summarized based on certain statistical models, and an expression value, in log 2-scale, is obtained per chip per probe set. Then the null hypothesis was tested that there's no significant changes in gene expression between the treatment pairs. This was done by LIMMA and is also implemented in Bioconductor. It uses empirical Bayes method to estimate the variance in gene expression. One comparison was made, namely, High Grade vs. Low Grade. The raw p-values were adjusted by the Benjamnin-Hochberg method for false discovery rate (FDR) control. All data sets contained a significant number of genes with a p-value less than 0.05, which is that the probability that a gene is NOT differential expressed (false positive) is 1:20.

[3] = system: myosin expression in ES2 cells; assay: Microarray gene expression, Table 7; assay type: cell-based, human; details: for MYO6 myosin VI, gene expression ratio to no drug control (D): probe 203215_s_at; for MYO5A myosin VA, gene expression ratio to no drug control (D): probe 204527_at; for MYH9 myosin, heavy polypeptide 9, non-muscle, gene expression ratio to no drug control (D): probe 211926_s_at; for MYO1D myosin ID, gene expression ratio to no drug control (D): probe 212338_at; for MYH10 myosin, heavy polypeptide 10, non-muscle, gene expression ratio to no drug control (D): probe 212372_at; for MYO1C Myosin IC, gene expression ratio to no drug control (D): probe 225080_at; for expression ratio to the control, myosin family: span over probes of Table 7
Method: as §1, §2, §3, §4, §5, §6

K562 cells membrane = assay: EM study of membrane structure; assay type: cell-based, human; details: 5 uM, 60 min
Description: Xanifolia-Y has a potent hemolytic activity in red blood cells (FIG. 27). To study the effect of Xanifolia-Y on membrane structure, the morphology of cell membrane treated with Xanifolia-Y was examined with EM. […] Solvent DMSO and AKOH-Y (a derivative of Xanifolia-Y without the angeloyl group and it has no activity) served as controls. Cells were negative stained with 1% UAc and subsequently examined with EM.

[4] = system: regulator of G-protein expression in ES2 cells; assay: Microarray gene expression, Table 14; assay type: cell-based, human
Method: as §1, §2, §3, §4, §5, §6

[5] = system: red blood cells (hemolysis); assay: Hemolytic activity; assay type: cell-based, human; details: human red blood cells (isolated from whole blood); human red blood cells, FIG. 5A
Method: (§7) Methods: • Human whole blood was obtained from the Houston Gulf Coast Blood Center. • Red blood cells were isolated by the following method: Human blood (in EDTA) was diluted 1:1 with PBS, underlay with 4 mL of Histopaque-1077 (SIGMA) and was centrifuged at 400 g for 30 min. • Red blood cells (RBC) were collected and washed three times with PBS. • 10% suspensions of RBC were prepared with PBS before use. • 50 μL of RBC suspension was added to 2 mL of saponins with different concentration. • The suspension was mixed by vortexing then left to sit at room temperature for 60 minutes. • The suspension was centrifuged at 3000 rpm for 5 min. Absorbance of the supernatant was measured at 540 nm.

human red blood cells = assay: Hemolytic activity; assay type: cell-based; details: FIG. 3D
Method: as §7

Compound	TNC Tenascin C (hexabrachion), gene expression ratio to no drug control (D) [1] [folds]	LAMB1 laminin, beta 1, gene expression ratio to no drug control (D) [2] [folds]	LAMA4 laminin, alpha 4, gene expression ratio to no drug control (D) [2] [folds]	LAMB1, gene expression ratio to no drug control (D) [2] [folds]	LAMB2, gene expression ratio to no drug control (D) [2] [folds]	MYLK myosin, light polypeptide kinase, gene expression ratio to no drug control (D) ([3]; probe 202555_s_at) [folds]	MYO6 myosin VI, gene expression ratio to no drug control (D) [3] [folds]	MYO5A myosin VA, gene expression ratio to no drug control (D) [3] [folds]	MYH9 myosin, heavy polypeptide 9, non-muscle, gene expression ratio to no drug control (D) [3] [folds]	MYO1D myosin ID, gene expression ratio to no drug control (D) [3] [folds]	MYH10 myosin, heavy polypeptide 10, non-muscle, gene expression ratio to no drug control (D) [3] [folds]	MYLK myosin, light polypeptide kinase, gene expression ratio to no drug control (D) ([3]; probe 224823_at) [folds]	MYO1C Myosin IC, gene expression ratio to no drug control (D) [3] [folds]	expression ratio to the control, myosin family [3] [folds]	RGS4 regulator of G-protein signalling 4, gene expression ratio to no drug control (D) ([4]; probe 204337_at) [folds]	RGS4 regulator of G-protein signalling 4, gene expression ratio to no drug control (D) ([4]; probe 204338_s_at) [folds]	RGS4 regulator of G-protein signalling 4, gene expression ratio to no drug control (D) ([4]; probe 204339_s_at) [folds]	also measured
C/C=C(/C)C(=O)O[C@H]1[C@H](OC(=O)/C(C)=C\C)[C@@]2(CO)C(CC1(C)C)C1=CCC3[C@@]4(C)CC[C@H](O[C@@H]5OC(C(=O)O)[C@@H](O)C(O[C@@H]6O[C@@H](CO)C(O)C6O)C5O[C@@H]5OC(CO)[C@H](O)C(O)C5O)C(C)(C)C4CC[C@@]3(C)[C@]1(C)[C@@H](O)[C@H]2O (stereo partly drawn) [Xanifolia-Y, 3-O-[β-D-galactopyranosyl (1→2)]-α-L-arabinofuranosy (1→3)-β-D-glucuronopyranosyl-21,22-O-diangeloyl-3β, 15α, 16α, 21β, 22α, 28-hexahydroxyolean-12-ene]	−3.2	−1.6	−2.2	−1.6	−2.0	−1.6	−1.6	−1.6	−2.2	−1.7	−1.7	−1.5	−1.5	−1.5 to −2.2	−3.4	−2.5	−3.5	state of cells after drug-treatment (Hey 8A; Hey8A, 15 ug/ml and 20 ug/ml, 24 hours): found dead (floating); activity at 10 µg/mL (Hey 8A; Homo sapiens, Hey8A, 10 ug/ml, 24 hours, read-out: growth of cells, % of control (MTT)): 83%; IC50 (Hey 8A; Homo sapiens, Hey 8A, Serous): 10.5 µM; LAMC1, gene expression ratio to no drug control (D) [2]: −1.9 folds; membrane morphology (EM) (K562 cells membrane): patches of pits were found in the membrane; IC50 at 60 min [5]: 1 µg/mL (≈ 0.876 µM)
C/C=C(/C)C(=O)O[C@H]1[C@H](OC(=O)/C(C)=C\C)[C@@]2(CO)C(CC1(C)C)C1=CCC3[C@@]4(C)CC[C@H](O)C(C)(C)C4CC[C@@]3(C)[C@]1(C)[C@@H](O)[C@H]2O (stereo partly shown) [ACH-Y]	1.0	−2.0	−2.0	−1.7	−2.0	−1.2	−1.6	−1.2	−1.2	−2.1	−1.4	−1.4	−1.4	−1.2 to −2.1	−1.1	−1.1	−1.2	LAMC1, gene expression ratio to no drug control (D) ([2]; listed as YM): −1.1 folds; LAMC1, gene expression ratio to no drug control (D) ([2]; listed as YM/ACH-Y): 1.1 folds; hemolytic activity of hydrolysed products of compound Y (human red blood cells): reduced hemolytic activity
